Laboratory results: patent US20210337789A1, “Derivatives of m-Guaiacol, Their Preparation and Their Uses” (Universite de Caen Normandie, priority 2018, published 2021)
Like-named read-outs stand apart in the source and are kept apart here.

Key:
[1] = system: Micrococcus luteus reference strain; experiment: Bacterial growth (optical density at 600 nm) on Micrococcus luteus reference strain; type: cell-based; design: key: 0 = no effect, 1 = pure only, 2 = several concentrations, 3 = strong at all; conditions: in DMSO diluted in PBS, compared with triclosan
Procedure: (§1) The bacterial growth is evaluated by measuring the optical density (DO) at 600 nm using NanoDrop.
(§2) This ratio permits a classification of the molecules in 4 effect levels: • 0=no effect observed; • 1=effect observed only when the molecule is tested pure; • 2=effect observed at several concentrations, but which gradually decreases the dilutions; • 3=strong effect observed at each concentration of molecule tested.
The molecules are put in a solution in DMSO and diluted in PBS.

Escherichia coli = experiment: Bacterial growth screening on wild-type phenotype strain, E. coli; type: cell-based
Procedure: as §1, §2
(§3) A screening of molecules of the invention on several wild-type phenotype strains has been carried out.
(§4) The strains initially selected are: • Gram+: Streptococcus equi subsp zooepidemicus and Staphylococcus aureus • Gram−: Escherichia coli, Klebsiella pneumoniae and Stenotrophomonas maltophila.

[2] = system: KB cells (epidermoid carcinoma); experiment: In vitro cytotoxicity, cell proliferation test (MTS) on KB cells; type: cell-based; conditions: Homo sapiens, read-out: percentage of inhibition of cell growth
Procedure: The human cell strain KB (epidermoid carcinoma) was obtained from the NCI (National Cancer Institute) and cultivated in the D-MEM medium added with 10% of foetal bovine serum (Invitrogen) in the presence of penicillin, streptomycin and fungizone in flasks of […] under CO2 at 5%. The cells were deposited on tissue culture microplates with 96 wells and a density of 650 cells/well in 200 μl of medium and treated 24 hours later with compounds of the invention dissolved in DMSO at concentrations going from 0.5 nM to 10 μM using a Biomek 3000 (Beckman-Coulter) automaton. The controls received the same volume of DMSO (1% of final volume). After 72 hours of exposure, the MTS reagent (Celltiter 96Aqueous One solution, Promega) was added and incubated for 3 hours at 37° C.: the absorbance was measured at 490 nm and the results of inhibition of the cell proliferation were calculated according to the ratio [(1−(OD490treated/OD490control))×100].
Results: Cytotoxicity at 10^−5 and 10^−6M on Triplicate KB Cells, Measured after 72 Hours of Exposure.
The percentage of inhibition of cell growth with respect to the cells receiving the same quantity of DMSO is outlined in the table below.

[3] = system: Streptococcus equi subsp zooepidemicus; experiment: Bacterial growth screening on wild-type phenotype strain, S. zooepidemicus; type: cell-based
Procedure: as §1, §2, §3, §4

Staphylococcus aureus = experiment: Bacterial growth screening on wild-type phenotype strain, S. aureus; type: cell-based
Procedure: as §1, §2, §3, §4

[4] = system: Stenotrophomonas maltophila; experiment: Bacterial growth screening on wild-type phenotype strain, S. maltophila; type: cell-based
Procedure: as §1, §2, §3, §4

Klebsiella pneumoniae = experiment: Bacterial growth screening on wild-type phenotype strain, K. pneumoniae; type: cell-based
Procedure: as §1, §2, §3, §4

[5] = system: E. coli strains presenting high levels of resistance; experiment: Bacterial growth on E. coli strains presenting high levels of resistance; type: cell-based, Escherichia coli; design: key to Effects (0 < 1 < 2 < 3): 0 = no effect; 1 = pure only; 2 = several concs; 3 = strong at each; key to Δ DO: change in optical density measured at 600 nm; conditions: for Effects (0 < 1 < 2 < 3): molecules at 1, 0.5 and 0.1 mg/ml, triclosan at 0.1 mg/ml
Procedure: as §1, §2
(§5) Compounds of the invention were tested on 4 strains of E. coli, 3 strains of K. pneumoniae and 4 strains of S. aureus with the resistance profiles below.

[6] = system: S. aureus strains presenting high levels of resistance; experiment: Bacterial growth on S. aureus strains presenting high levels of resistance; type: cell-based, Staphylococcus aureus; design: key to Effects (0 < 1 < 2 < 3): 0 = no effect; 1 = pure only; 2 = several concs; 3 = strong at each; key to Δ DO: change in optical density measured at 600 nm; conditions: for Effects (0 < 1 < 2 < 3): molecules at 1, 0.5 and 0.1 mg/ml, triclosan at 0.1 mg/ml
Procedure: as §1, §2, §5

[7] = system: K. pneumoniae strains presenting high levels of resistance; experiment: Bacterial growth on K. pneumoniae strains presenting high levels of resistance; type: cell-based, Klebsiella pneumoniae; design: key to Effects (0 < 1 < 2 < 3): 0 = no effect; 1 = pure only; 2 = several concs; 3 = strong at each; key to Δ DO: change in optical density measured at 600 nm; conditions: for Effects (0 < 1 < 2 < 3): molecules at 1, 0.5 and 0.1 mg/ml, triclosan at 0.1 mg/ml
Procedure: as §1, §2, §5

[8] = 10^−5 M, KB cells, triplicate, 72 hours of exposure, with respect to DMSO control
[9] = 10^−6 M, KB cells, triplicate, 72 hours of exposure, with respect to DMSO control
[10] = K. pneumoniae Strain 1, 0.1 mg/ml
[11] = K. pneumoniae Strain 2, 0.1 mg/ml
[12] = K. pneumoniae Strain 3, 0.1 mg/ml

COc1cc(O)c(Cl)c(Br)c1F [sr7614]
Effect level [1]: 3 | Effect level, E. coli (Escherichia coli): 3 | inhibition at 10 µM [2, 8]: 6 ± 4% | inhibition at 1 µM [2, 9]: 0% | Effect level, S. zooepidemicus [3]: 2 | Effect level, S. aureus (Staphylococcus aureus): 2 | Effect level, S. maltophila [4]: 2 | Effect level, K. pneumoniae (Klebsiella pneumoniae): 2

COc1cc(O)c(Cl)c(C)c1Cl [sr7608]
Effect level [1]: 2 | inhibition at 10 µM [2, 8]: 7 ± 11% | inhibition at 1 µM [2, 9]: 0%

Oc1cc(Cl)ccc1Oc1ccc(Cl)cc1Cl [Triclosan, reference compound]
Δ DO ([5]; E. coli Strain 1, 0.1 mg/ml): 1.005 | Effects (0 < 1 < 2 < 3) ([5]; E. coli Strain 1): 3 | Δ DO ([5]; E. coli Strain 2, 0.1 mg/ml): 1.197 | Effects (0 < 1 < 2 < 3) ([5]; E. coli Strain 2): 3 | Δ DO ([5]; E. coli Strain 3, 0.1 mg/ml): 0.948 | Effects (0 < 1 < 2 < 3) ([5]; E. coli Strain 3): 3 | Δ DO ([5]; E. coli Strain 4, 0.1 mg/ml): 1.080 | Effects (0 < 1 < 2 < 3) ([5]; E. coli Strain 4): 3 | inhibition at 1 µM ([2]; KB, 72 h): 5 ± 12% | inhibition at 10 µM ([2]; KB, 72 h): 78 ± 3% | Δ DO ([6]; S. aureus Strain 1, 0.1 mg/ml): 0.441 | Effects (0 < 1 < 2 < 3) ([6]; S. aureus Strain 1): 3 | Δ DO ([6]; S. aureus Strain 2, 0.1 mg/ml): 0.459 | Effects (0 < 1 < 2 < 3) ([6]; S. aureus Strain 2): 3 | Δ DO ([6]; S. aureus Strain 3, 0.1 mg/ml): 0.532 | Effects (0 < 1 < 2 < 3) ([6]; S. aureus Strain 3): 3 | Δ DO ([6]; S. aureus Strain 4, 0.1 mg/ml): 0.490 | Effects (0 < 1 < 2 < 3) ([6]; S. aureus Strain 4): 3 | Δ DO [7, 10]: 0.824 | Effects (0 < 1 < 2 < 3) ([7]; K. pneumoniae Strain 1): 3 | Δ DO [7, 11]: 0.893 | Effects (0 < 1 < 2 < 3) ([7]; K. pneumoniae Strain 2): 3 | Δ DO [7, 12]: 1.092 | Effects (0 < 1 < 2 < 3) ([7]; K. pneumoniae Strain 3): 3

COc1cc(O)c(Br)c(F)c1F [sr7611]
Effect level [1]: 2

COc1cc(O)c(I)c(F)c1F [sr7612]
Effect level [1]: 2

COc1c(Cl)cc(Cl)c(O)c1Cl [sr7586]
inhibition at 10 µM [2, 8]: 0% | inhibition at 1 µM [2, 9]: 6 ± 8%

COc1cc(O)c(Cl)c(F)c1F [sr7610]
Effect level [1]: 2

COc1cc(O)c(Cl)c(Br)c1Cl [sr7616]
Effect level [1]: 3 | Effect level, E. coli (Escherichia coli): 3 | Δ DO ([5]; E. coli Strain 1, 0.1 mg/ml): 0.089 | Δ DO ([5]; E. coli Strain 1, 0.5 mg/ml): 0.640 | Δ DO ([5]; E. coli Strain 1, 1 mg/ml): 0.857 | Effects (0 < 1 < 2 < 3) ([5]; E. coli Strain 1): 2 | Δ DO ([5]; E. coli Strain 2, 0.1 mg/ml): 0.331 | Δ DO ([5]; E. coli Strain 2, 0.5 mg/ml): 0.854 | Δ DO ([5]; E. coli Strain 2, 1 mg/ml): 1.069 | Effects (0 < 1 < 2 < 3) ([5]; E. coli Strain 2): 3 | Δ DO ([5]; E. coli Strain 3, 0.1 mg/ml): 0.141 | Δ DO ([5]; E. coli Strain 3, 0.5 mg/ml): 0.679 | Δ DO ([5]; E. coli Strain 3, 1 mg/ml): 0.825 | Effects (0 < 1 < 2 < 3) ([5]; E. coli Strain 3): 3 | Δ DO ([5]; E. coli Strain 4, 0.1 mg/ml): 0.308 | Δ DO ([5]; E. coli Strain 4, 0.5 mg/ml): 0.868 | Δ DO ([5]; E. coli Strain 4, 1 mg/ml): 0.853 | Effects (0 < 1 < 2 < 3) ([5]; E. coli Strain 4): 3 | inhibition at 10 µM [2, 8]: 0% | inhibition at 1 µM [2, 9]: 0% | Effect level, S. zooepidemicus [3]: 3 | Effect level, S. aureus (Staphylococcus aureus): 2 | Effect level, S. maltophila [4]: 2 | Effect level, K. pneumoniae (Klebsiella pneumoniae): 3 | Δ DO ([6]; S. aureus Strain 1, 0.1 mg/ml): 0.276 | Δ DO ([6]; S. aureus Strain 1, 0.5 mg/ml): 0.443 | Δ DO ([6]; S. aureus Strain 1, 1 mg/ml): 0.445 | Effects (0 < 1 < 2 < 3) ([6]; S. aureus Strain 1): 3 | Δ DO ([6]; S. aureus Strain 2, 0.1 mg/ml): 0.303 | Δ DO ([6]; S. aureus Strain 2, 0.5 mg/ml): 0.458 | Δ DO ([6]; S. aureus Strain 2, 1 mg/ml): 0.459 | Effects (0 < 1 < 2 < 3) ([6]; S. aureus Strain 2): 3 | Δ DO ([6]; S. aureus Strain 3, 0.1 mg/ml): 0.299 | Δ DO ([6]; S. aureus Strain 3, 0.5 mg/ml): 0.529 | Δ DO ([6]; S. aureus Strain 3, 1 mg/ml): 0.525 | Effects (0 < 1 < 2 < 3) ([6]; S. aureus Strain 3): 3 | Δ DO ([6]; S. aureus Strain 4, 0.1 mg/ml): 0.291 | Δ DO ([6]; S. aureus Strain 4, 0.5 mg/ml): 0.491 | Δ DO ([6]; S. aureus Strain 4, 1 mg/ml): 0.491 | Effects (0 < 1 < 2 < 3) ([6]; S. aureus Strain 4): 3 | Δ DO [7, 10]: 0.236 | Δ DO ([7]; K. pneumoniae Strain 1, 0.5 mg/ml): 0.594 | Δ DO ([7]; K. pneumoniae Strain 1, 1 mg/ml): 0.646 | Effects (0 < 1 < 2 < 3) ([7]; K. pneumoniae Strain 1): 3 | Δ DO [7, 11]: 0.151 | Δ DO ([7]; K. pneumoniae Strain 2, 0.5 mg/ml): 0.641 | Δ DO ([7]; K. pneumoniae Strain 2, 1 mg/ml): 0.686 | Effects (0 < 1 < 2 < 3) ([7]; K. pneumoniae Strain 2): 2 | Δ DO [7, 12]: 0.213 | Δ DO ([7]; K. pneumoniae Strain 3, 0.5 mg/ml): 0.652 | Δ DO ([7]; K. pneumoniae Strain 3, 1 mg/ml): 0.847 | Effects (0 < 1 < 2 < 3) ([7]; K. pneumoniae Strain 3): 2

COc1cc(O)c(Cl)cc1F [sr7581]
inhibition at 10 µM [2, 8]: 0% | inhibition at 1 µM [2, 9]: 0%

COc1c(Cl)c(O)c(Cl)c(F)c1Cl [sr7587]
inhibition at 10 µM [2, 8]: 0% | inhibition at 1 µM [2, 9]: 8 ± 4%

COc1cc(O)c(Br)cc1Br [sr7582]
inhibition at 1 µM ([2]; KB, 72 h): 0% | inhibition at 10 µM ([2]; KB, 72 h): 1 ± 7%

Oc1cc(I)c(F)cc1F [sr7618]
Effect level [1]: 2

COc1c(Cl)cc(Cl)c(O)c1C [sr7607]
Effect level [1]: 2 | inhibition at 10 µM [2, 8]: 0% | inhibition at 1 µM [2, 9]: 0%

COc1cc(O)c(Cl)cc1Br [sr7583]
Effect level [1]: 3 | Effect level, E. coli (Escherichia coli): 2 | inhibition at 10 µM [2, 8]: 0% | inhibition at 1 µM [2, 9]: 0% | Effect level, K. pneumoniae (Klebsiella pneumoniae): 2

COc1cc(O)c(I)cc1I [sr7584]
Effect level [1]: 2 | inhibition at 1 µM ([2]; KB, 72 h): 0% | inhibition at 10 µM ([2]; KB, 72 h): 0%

COc1cc(O)c(F)cc1Cl [sr7580]
inhibition at 10 µM [2, 8]: 16 ± 4% | inhibition at 1 µM [2, 9]: 5 ± 8%

COc1cc(O)c(Cl)c(Br)c1 [sr7609]
Effect level [1]: 3 | Effect level, E. coli (Escherichia coli): 2 | Effect level, S. aureus (Staphylococcus aureus): 2 | Effect level, S. maltophila [4]: 2 | Effect level, K. pneumoniae (Klebsiella pneumoniae): 2
